Results from patent US11491245B2, “Gadolinium chelate compounds for use in magnetic resonance imaging” (BAYER PHARMA AKTIENGESELLSCHAFT, priority 2015, dated 2022).
Where two headings read alike, the source gives them in different places.

What was measured:
[1] = Gadolinium release after the addition of zinc and phosphate (transmetallation); conditions: phosphate buffer pH 7.00, 2.5 mmol/L gadolinium complex, 2.5 mmol/L ZnCl2, 37° C., up to 72 h, FIG. 2
Procedure: The technique is based on measurement of the evolution of the water proton paramagnetic longitudinal relaxation rate in phosphate buffer (pH 7.00, 26 mmol/L, KH2PO4 Merck, Hessen, Germany) containing 2.5 mmol/L gadolinium complex and 2.5 mmol/L ZnCl2 Sigma-Aldrich, Munich, Germany). […] The mixture was vigorously stirred, and 300 μL were taken out for the relaxometric study at 0 min, 60 min, 120 min, 3 h, 4 h, 5 h, 24 h, 48 h and 72 h. The measurements were performed on a MiniSpec mq60 spectrometer (Bruker Analytik, Karlsruhe, Germany) at 60 MHz and 37° C.

[2] = 37° C., cited from earlier work
[3] = Whole body imaging (dynamic MRI and tissue Gd concentration); format: in vivo, male New Zealand white rabbits; conditions: rabbits, tissues 30 min p.i., FIGS. 8A and 8B
Procedure: The study was performed with a clinical whole body MRI equipped with body spine coil, abdomen flex coil, neck coil (1.5 T Magnetom Avanto, Siemens Healthcare, Erlangen, Germany). The study was done using male New Zealand white rabbits (weight 2.3-3.0 kg, n=8, Charles River Kisslegg). All animals were initially anesthetized using a body weight-adjusted intramuscular injection of a mixture (1+2) of xylazine hydrochloride (20 mg/mL, Rompun 2%, Bayer Vital GmbH, Leverkusen, Germany) and ketamine hydrochloride (100 mg/mL, Ketavet, Pfizer, Pharmacia GmbH, Berlin, Germany) using 1 mL/kg body weight. The continuous anesthesia of the intubated animals (endotracheal tube, Rueschelit Super Safe Clear, cuff 3.0 mm, Willy Ruesch AG, Kernen, Germany) was achieved by the intravenous injection of 0.9 mg propofol per kilogram per hour (10 mg/mL, Propofol-Lipuro 1%, B. Braun Melsungen AG, Melsungen, Germany). The continuous intravenous injection was performed using a MR infusion system (Continuum MR Infusion System, Medrad Europe B. V., A E Beek, Germany). The tracheal respiration (SV 900C, Maquet, Rastatt, Germany) was performed with 55% oxygen, forty breaths per minute and a breathing volume of 7 mL per kilogram body weight per minute.
Dynamic MRI measurements up to 22 min post injection with subsequent quantitative signal analysis (Siemens Mean Curve software (SYNGO Task Card, Siemens Healthcare, Erlangen, Germany), were performed for three different regions head and neck (brain, tongue, chops muscle, neck muscle), abdomen (spleen, liver, blood) and pelvis (extremity muscle). For the three different slice groups a 3D T1-weighted Vibe sequence was used (TR=4.74 ms, TE=2.38, flip=10°, 1:29 min). The dynamic measurements of the three slice groups (Head/Neck: 1:29 min, Abdomen: 0:49 min, Pelvis: 1:16 min) were done up to 22 min post injection: 1. Head/Neck: baseline, 1.4, 5.2, 8.9, 12.8, 16.5, 20.4 min, 2. Abdomen: baseline, 0.5, 4.3, 8.1, 11.9, 15.7, 19.5 min and 3. Pelvis: baseline, 2.9, 6.7, 10.5, 14.4, 18.1, 22.0 min. At 30 min post injection the animals were sacrificed and the Gd concentrations were measured using Inductively Coupled Plasma Mass Spectroscopy (ICP-MS Agilent 7500a, Waldbronn, Germany) in the following tissue samples: blood, brain, tongue, liver and extremity muscle. A quantitative image evaluation was performed for the 30 min time point p.i. due to the combination of the quantitative ICP-MS Gadolinium concentrations and the MRI region-of-interest analysis.

[4] = Pharmacokinetic parameters in rats (blood plasma kinetic); format: in vivo, male rats (Han-Wistar); conditions: male rats, 0.1 mmol Gd/kg bolus tail vein, mean
Procedure: Pharmacokinetic parameters of the compound of Example 3 were determined in male rats (Han-Wistar, 220-230 g, n=3). The compound was administered as a sterile aqueous solution (52.5 mmol Gd/L) as a bolus in the tail vein of the animals. The dose was 0.1 mmol Gd/kg. Blood was sampled 1, 3, 5, 10, 15, 30, 60, 90, 120, 240, 360, 480 and 1440 min post injection and the Gd concentration was determined by Inductively Coupled Plasma Mass Spectroscopy (ICP-MS Agilent 7500a, Waldbronn, Germany). The blood level was converted to plasma concentrations by division by 0.625 (plasma fraction of rat blood, assuming strictly extracellular distribution). As a control, 3 animals were treated in the same way with Gadovist®, a low molecular weight contrast agent.
The fit of the obtained data to a three compartment model (Phoenix—WinNonlin) yielded the pharmacokinetic parameters which are shown in Table 3.

O=C([O-])CN1CCN(CC(=O)[O-])CCN([C@H](CO)[C@H](O)CO)CCN(CC(=O)[O-])CC1.[Gd+3] (racemic) [Reference compound 1, gadobutrol, reference compound]
stability against transmetallation (relative longitudinal relaxation rate R1p(t)/R1p(0) versus time) [1]: high stability
r1 human plasma ([2]; reference compounds (marked ^), plasma, 3.0 T, average ± standard deviation): 5.0 ± 0.3 L/mmol/s
r1 water ([2]; reference compounds (marked ^), 3.0 T, average ± standard deviation): 3.2 ± 0.3 L/mmol/s
r1 FBS ([2]; reference compounds, bovine plasma, 1.5 T, from Rohrer et al.): 5.2 L/mmol/s
r1 water ([2]; reference compounds, 1.5 T, from Rohrer et al.): 3.3 L/mmol/s
slope of the linear regression between tissue gadolinium concentration and MRI signal change [3]: 1.0
AUC∞ Area under the curve (to infinity) [4]: 11500 µmol·min/L
MRT Mean residence time [4]: 30.1 min
V1 + V2 Volume, compartments V1 + V2 [4]: 0.25 L/kg
V2 Volume, compartment V2 [4]: 0.12 L/kg
Vc (V1) Volume, central compartment V1 [4]: 0.14 L/kg
Vd,ss Volume of distribution at steady state [4]: 0.28 L/kg
t½ α Half-life, compartment V1 ([4]; three compartment model): 1.6 min
t½ β Half-life, compartment V2 ([4]; three compartment model): 20.5 min
t½ γ Half-life, compartment V3 ([4]; three compartment model): 232 min
